According to publication PMC10620772, “Design, synthesis, and biological evaluation of new pyrimidine-5-carbonitrile derivatives as novel anti-cancer, dual EGFR^WT/COX-2 inhibitors with docking studies” (RSC Advances, 2023):
Values joined by “and” are separate entries in the source; they are usually repeats but may differ in a detail not shown here. Equal values may be shown once.

Tests used:
in vitro = conditions: human
Protocol: (§1) Further perspectives of their mechanisms of action were carried.
(§2) The preliminary in vitro antitumor investigation of our novel potential anticancer candidates was carried out by NCI, MD, USA (www.dtp.nci.nih.gov). […] Moreover, the safety profile of 4e & 4f at normal cells were evaluated.

[1] = tested on: FHC (epithelial colon cell line); test: in vitro; conditions: human
Protocol: as §1, §2

[2] = tested on: non-small cell lung cancer subpanel; test: NCI60 five-dose, subpanel II; type: cell-based, human; conditions: for GI50: Homo sapiens, read-out: MG-MID (GI50); for GI50 / MG-MID (TGI): subpanel II; for Selectivity index (GI50) / Selectivity index (TGI): full panel MG-MID / subpanel II
Description: (§3) (2) The molar concentration of the compound responsible for total growth inhibition, also known as total growth inhibition (TGI).
(§4) Regarding subpanel selectivity toward certain cancer type, the method of determining a compound's selectivity index is to divide the full panel MG-MID (μM) value by each single subpanel. Values above six indicate high selectivity against the subpanel; moderate selectivity is denoted by values between three and six. Conversely, compounds are termed nonselective if their selectivity is less than three.[30,37]

Leukemia subpanel = test: NCI60 five-dose, subpanel I; type: cell-based, human; conditions: for GI50: Homo sapiens, read-out: MG-MID (GI50); for GI50 / MG-MID (TGI): subpanel I
Description: as §3, §4

COX-2 = biological target: T1, COX-2 (Homo sapiens, UniProt P35354); test: COX-2 inhibitor screening kit (Biovision); type: biochemical; conditions: for IC50: means ± SD of three experiments, read-out: COX2 IC50
T1 construct: purchased Biovision K547
T1 sequence (P35354 18-604): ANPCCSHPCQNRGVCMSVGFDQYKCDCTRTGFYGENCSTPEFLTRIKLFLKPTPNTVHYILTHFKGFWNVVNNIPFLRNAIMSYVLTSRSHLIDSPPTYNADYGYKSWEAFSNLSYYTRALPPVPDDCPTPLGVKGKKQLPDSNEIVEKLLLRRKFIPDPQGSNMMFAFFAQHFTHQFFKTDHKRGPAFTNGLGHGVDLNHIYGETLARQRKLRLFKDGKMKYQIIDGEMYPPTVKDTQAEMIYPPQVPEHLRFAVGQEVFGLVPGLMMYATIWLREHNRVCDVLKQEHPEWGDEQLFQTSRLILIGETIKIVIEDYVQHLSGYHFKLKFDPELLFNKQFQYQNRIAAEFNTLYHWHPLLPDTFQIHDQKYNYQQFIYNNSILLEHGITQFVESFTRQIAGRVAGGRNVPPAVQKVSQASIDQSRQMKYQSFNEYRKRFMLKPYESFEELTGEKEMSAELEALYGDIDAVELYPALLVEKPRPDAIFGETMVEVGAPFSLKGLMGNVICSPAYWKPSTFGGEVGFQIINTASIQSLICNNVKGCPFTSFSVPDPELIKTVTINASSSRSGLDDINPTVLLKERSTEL
Protocol: The inhibitory activity of novel 4e & 4f against COX-1/COX-2 was evaluated by using Biovision COX-1/COX-2 Inhibitor Screening Kit (Catalog #: K548) and (Catalog #: K547), respectively.

[3] = tested on: active caspase-3 in Colo 205 cells; test: Caspase-3 ELISA; type: cell-based, human; conditions: for Caspase 3: Colo_205, treated at IC50
Description: Among the death proteases, the caspases family of cysteine-dependent aspartate-directed proteases is significant. There are multiple levels where caspase activation and activity are regulated.[43] Caspases are activated during apoptosis, which eventually results in cell death by deactivating a number of signals.[44] One of the crucial survival signals, EGFR, may be the target of caspase activation to ensure the completion of apoptosis.[45] Additionally, it has been reported that activating caspase-3 through COX-2 inhibition enhances apoptosis.[40] Therefore, the impact of the novel compounds on the level of caspase 3 was examined.
(1) Into the antibody coated wells add 100 μl of standard diluent buffer excepts wells wich detected to be the chromogen blank, then add 100 μl. […] (10) Decant liquid from wells then wash, (11) pipette 100 μl of chromogen substrate to all wells, The well fluid will start to become blue. (12) 30 minutes should be spent incubating at room temperature in the dark. (13) To each well, add 100 μl of stop solution. To mix, lightly tap the plate's edge. The well solution should transform from blue to yellow. (14) Read the absorbance of each well using a microtiter plate reader at 450 nm. (15) Draw the standard curve using a curve fitting program. (16) The standard curve can be used to determine the concentrations for unknown samples and controls.[55]

breast cancer subpanel = test: NCI60 five-dose, subpanel IX; type: cell-based, human; conditions: for GI50: Homo sapiens, read-out: MG-MID (GI50); for GI50 / MG-MID (TGI): subpanel IX; for Selectivity index (GI50) / Selectivity index (TGI): full panel MG-MID / subpanel IX
Description: as §3, §4

Colo 205 cells = test: Cell cycle analysis by flow cytometry; type: cell-based, human; conditions: treated at IC50; for % G0–G1 / % G2/M / % S: DNA content
Protocol: Inhibition of the EGFR^WT/COX-2 pathway has been linked to alterations in cell survival and proliferation, as reported.[22,40]
Cell Culture Unit, VACSERA, Cairo, Egypt, conducted an apoptosis investigation.
Results reported as DNA% of each cell cycle phase: (S, G1, G2, M). The following reported procedure was followed; (1) applying compounds 4e and 4f on Colo 205 cell line separately, then the Colo 205 was cultured. (2) The cells were collected in PBS diluted by nanopure water as a single cell suspension (by adding trypsine to dissociate cells). (3) Centrifuge cells by 500×g for 5 min, decant the supernatant. (4) Using PBS wash the cells, gently tapping the tube to resuspend cells. (5) In ice bath fix the cells in 66% cooled ethanol, stored in +4 °C 2 h at least (6) put the sample on bench at room temperature, inverted tube gently to resuspend cells. (7) Centrifuge, discard supernatant, wash and resuspend cells once more time. (8) Gently adding PI solution with RNAase (preventing RNA staining and interfering results), (9) Incubate samples in R.T, dark conditions for 20 min (10) transfer samples into ice, dark conditions. (11) Genteelly tapping to resuspend cells which settled during incubation step. (12) Put sample into flow cytometer and run it. Detect the fluorescence of protium iodide in FL2.[41,42] Additional assessment of the pro-apoptotic effect was performed by using Annexin V-FITC and propidium iodide.

N#Cc1c(-c2ccc(F)cc2)nc(SCc2ccccc2)nc1N1CCNCC1 [4e, 2-(Benzylthio)-4-(4-fluorophenyl)-6-(piperazin-1-yl) pyrimidine-5-carbonitrile]
IC50 (in vitro): 28.2 µM | selectivity ratio (in vitro): 17 | IC50 FHC [1]: 46.34 µM | GI50 [2]: 11.2 µM | Selectivity index (GI50) [2]: 0.95 | Selectivity index (TGI) [2]: 0.92 | MG-MID (TGI) [2]: 25.67 µM | GI50 (Leukemia subpanel): 5.59 µM | Selectivity index (GI50) (Leukemia subpanel; full panel MG-MID / subpanel I): 1.90 | MG-MID (TGI) (Leukemia subpanel): 16.17 µM | SI (COX-2 over COX-1) (COX-2): 8.55 | IC50 (COX-2): 1.28 µM | Caspase 3 [3]: 808.9 ± 11.9 pg·mL | GI50 (breast cancer subpanel): 9.57 µM | Selectivity index (GI50) (breast cancer subpanel): 1.11 | Selectivity index (TGI) (breast cancer subpanel): 0.98 | MG-MID (TGI) (breast cancer subpanel): 23.96 µM | % G0–G1 (Colo 205 cells): 61.31% | % G2/M (Colo 205 cells): 2.87% | % S (Colo 205 cells): 35.82% | Cell cycle comment (Colo 205 cells): Cell growth arrest@ G1 | Increase of cells at G0–G1 phase vs control (Colo 205 cells): ~1.2 fold

N#Cc1c(-c2ccc(F)cc2)nc(SCc2ccc(F)cc2)nc1N1CCNCC1 [4f, 2-((4-Fluorobenzyl)thio)-4-(4-fluorophenyl)-6-(piperazin-1-yl) pyrimidine-5-carbonitrile]
IC50 (in vitro): 46.3 µM | selectivity ratio (in vitro): 25.3 | IC50 FHC [1]: 28.25 µM | GI50 [2]: 13.7 µM | Selectivity index (GI50) [2]: 0.98 | Selectivity index (TGI) [2]: 0.91 | MG-MID (TGI) [2]: 28.83 µM | GI50 (Leukemia subpanel): 7.63 µM | Selectivity index (GI50) (Leukemia subpanel; full panel MG-MID / subpanel I): 1.76 | Selectivity index (TGI) (Leukemia subpanel; full panel MG-MID / subpanel I): 1.21 | MG-MID (TGI) (Leukemia subpanel): 21.84 µM | SI (COX-2 over COX-1) (COX-2): 6.01 | IC50 (COX-2): 5.26 µM | Caspase 3 fold vs control ([3]; Colo 205, treated at IC50): 8 fold and 7.88 fold | Caspase 3 [3]: 656.4 ± 13.1 pg·mL | GI50 (breast cancer subpanel): 11.8 µM | Selectivity index (GI50) (breast cancer subpanel): 1.14 | Selectivity index (TGI) (breast cancer subpanel): 0.98 | MG-MID (TGI) (breast cancer subpanel): 26.88 µM | % G0–G1 (Colo 205 cells): 55.01% | % G2/M (Colo 205 cells): 5.39% | % S (Colo 205 cells): 39.6% | Cell cycle comment (Colo 205 cells): Cell growth arrest@ G1 | Increase of cells at G0–G1 phase vs control (Colo 205 cells): ~1.1 fold
